Reference: ChEMBL document CHEMBL4706703, “Novel 3-benzylidene/benzylphthalide Mannich base derivatives as potential multifunctional agents for the treatment of Alzheimer's disease” (Bioorg Med Chem, 2021)

Assays:
MAO-A = molecular target: T1, MAO-A (Homo sapiens, UniProt P21397); experiment: Inhibition of recombinant human MAOA at 10 uM using kynuramine as substrate preincubated for 30 mins followed by substrate addition and measured after 30 mins by fluorescence assay relative to control; details: probe kynuramine, time 60 min
T1 sequence (P21397 whole entry): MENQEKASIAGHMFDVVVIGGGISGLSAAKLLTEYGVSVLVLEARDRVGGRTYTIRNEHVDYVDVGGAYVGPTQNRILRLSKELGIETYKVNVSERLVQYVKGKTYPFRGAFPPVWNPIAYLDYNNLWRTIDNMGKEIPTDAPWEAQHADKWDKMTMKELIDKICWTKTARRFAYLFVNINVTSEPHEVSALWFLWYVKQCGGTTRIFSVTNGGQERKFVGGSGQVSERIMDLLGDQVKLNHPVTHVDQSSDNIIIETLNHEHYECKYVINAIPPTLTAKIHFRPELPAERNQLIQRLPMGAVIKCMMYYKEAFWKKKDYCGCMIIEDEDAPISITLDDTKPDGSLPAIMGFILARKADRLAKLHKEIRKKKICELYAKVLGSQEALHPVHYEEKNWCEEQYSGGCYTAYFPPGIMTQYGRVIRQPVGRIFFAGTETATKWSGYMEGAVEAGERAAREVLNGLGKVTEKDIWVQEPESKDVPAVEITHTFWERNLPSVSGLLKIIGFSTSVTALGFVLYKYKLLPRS

[1] = Antioxidant activity assessed as trolox equivalent of AAPH radical scavenging activity measured every min for 90 mins by ORAC-FL assay; assay type: functional
[2] = molecular target: Acetylcholinesterase (Electrophorus electricus) (UniProt O42275); experiment: Inhibition of Electrophorus electricus AChE at 10 uM using acetylthiocholine iodide as substrate incubated for 15 mins by Ellman's method relative to control
[3] = molecular target: T2, Amine oxidase [flavin-containing] B (Homo sapiens, UniProt P27338); experiment: Inhibition of recombinant human MAOB using kynuramine as substrate preincubated for 30 mins followed by substrate addition and measured after 30 mins by fluorescence assay
T2 sequence (P27338 whole entry): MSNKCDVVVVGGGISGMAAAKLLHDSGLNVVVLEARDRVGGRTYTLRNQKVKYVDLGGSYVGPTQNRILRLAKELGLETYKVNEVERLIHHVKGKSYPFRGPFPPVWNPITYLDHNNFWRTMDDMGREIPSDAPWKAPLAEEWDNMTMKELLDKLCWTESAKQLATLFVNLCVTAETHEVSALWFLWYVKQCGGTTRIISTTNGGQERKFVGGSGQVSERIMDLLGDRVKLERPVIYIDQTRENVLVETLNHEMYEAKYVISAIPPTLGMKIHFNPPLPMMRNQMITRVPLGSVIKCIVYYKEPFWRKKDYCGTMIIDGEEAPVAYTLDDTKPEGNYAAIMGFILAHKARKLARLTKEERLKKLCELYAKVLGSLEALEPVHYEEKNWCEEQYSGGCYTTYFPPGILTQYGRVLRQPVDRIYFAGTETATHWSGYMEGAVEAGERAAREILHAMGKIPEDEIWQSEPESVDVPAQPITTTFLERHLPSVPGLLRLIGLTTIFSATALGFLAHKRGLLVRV

[4] = molecular target: butyrylcholinesterase (BuChE) (Rattus norvegicus, UniProt Q9JKC1); experiment: Inhibition of rat serum BuChE at 10 uM using butyrylthiocholine iodide as substrate incubated for 15 mins by Ellman's method relative to control; assay type: cell-free; details: probe butyrylthiocholine iodide
[5] = molecular target: T2, Amine oxidase [flavin-containing] B; experiment: Inhibition of recombinant human MAOB at 10 uM using kynuramine as substrate preincubated for 30 mins followed by substrate addition and measured after 30 mins by fluorescence assay relative to control; details: 0.5 h
[6] = Inhibition of Cu2+-induced amyloid beta (1 to 42 residues) aggregation at 25 uM after 24 hrs by thioflavin T-based fluorescence assay relative to control
Plasma = experiment: Antiplatelet activity in rat platelet-rich plasma assessed as inhibition of ADP-induced platelet aggregation at 33 uM preincubated for 30 mins followed by ADP addition measured within 5 mins by aggregometry relative to control; assay type: functional; details: time 30-35 min
[7] = molecular target: Amyloid-beta precursor protein (Homo sapiens) (UniProt P05067); experiment: Inhibition of amyloid beta (1 to 42) (unknown origin) self aggregation at 25 uM after 24 hrs by thioflavin-T fluorescence method relative to control
Acetylcholinesterase [8] = molecular target: Acetylcholinesterase (Electrophorus electricus, UniProt O42275); experiment: Inhibition of Electrophorus electricus AChE using acetylthiocholine iodide as substrate incubated for 15 mins by Ellman's method
Acetylcholinesterase [9] = molecular target: Acetylcholinesterase (Homo sapiens, UniProt P22303); experiment: Inhibition of human AChE using acetylthiocholine iodide as substrate incubated for 15 mins by Ellman's method
[10] = molecular target: Amyloid-beta precursor protein (Homo sapiens) (UniProt P05067); experiment: Disaggregation of self-induced amyloid beta (1 to 42) (unknown origin) preformed fibrils at 25 uM measured after 24 hrs by thioflavin-T fluorescence assay relative to control

Chain of Acetylcholinesterase (Electrophorus electricus, UniProt O42275) (O42275 whole entry): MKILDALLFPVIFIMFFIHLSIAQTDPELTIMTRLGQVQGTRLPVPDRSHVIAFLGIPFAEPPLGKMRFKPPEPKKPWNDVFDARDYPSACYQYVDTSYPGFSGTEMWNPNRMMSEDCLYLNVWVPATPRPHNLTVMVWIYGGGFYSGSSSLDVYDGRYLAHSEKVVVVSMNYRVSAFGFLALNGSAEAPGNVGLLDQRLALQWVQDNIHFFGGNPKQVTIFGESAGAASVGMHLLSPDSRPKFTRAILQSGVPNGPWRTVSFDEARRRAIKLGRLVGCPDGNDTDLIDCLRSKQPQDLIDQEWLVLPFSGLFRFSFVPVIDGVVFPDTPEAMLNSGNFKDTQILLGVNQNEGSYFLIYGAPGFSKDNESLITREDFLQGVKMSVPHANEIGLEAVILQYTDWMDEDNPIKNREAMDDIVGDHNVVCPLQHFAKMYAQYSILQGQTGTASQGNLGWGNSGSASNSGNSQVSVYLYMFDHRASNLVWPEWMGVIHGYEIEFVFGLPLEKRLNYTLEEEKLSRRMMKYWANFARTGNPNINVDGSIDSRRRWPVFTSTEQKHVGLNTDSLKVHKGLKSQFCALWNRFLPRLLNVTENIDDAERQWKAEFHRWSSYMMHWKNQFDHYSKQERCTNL
Chain of butyrylcholinesterase (BuChE) (Q9JKC1 whole entry): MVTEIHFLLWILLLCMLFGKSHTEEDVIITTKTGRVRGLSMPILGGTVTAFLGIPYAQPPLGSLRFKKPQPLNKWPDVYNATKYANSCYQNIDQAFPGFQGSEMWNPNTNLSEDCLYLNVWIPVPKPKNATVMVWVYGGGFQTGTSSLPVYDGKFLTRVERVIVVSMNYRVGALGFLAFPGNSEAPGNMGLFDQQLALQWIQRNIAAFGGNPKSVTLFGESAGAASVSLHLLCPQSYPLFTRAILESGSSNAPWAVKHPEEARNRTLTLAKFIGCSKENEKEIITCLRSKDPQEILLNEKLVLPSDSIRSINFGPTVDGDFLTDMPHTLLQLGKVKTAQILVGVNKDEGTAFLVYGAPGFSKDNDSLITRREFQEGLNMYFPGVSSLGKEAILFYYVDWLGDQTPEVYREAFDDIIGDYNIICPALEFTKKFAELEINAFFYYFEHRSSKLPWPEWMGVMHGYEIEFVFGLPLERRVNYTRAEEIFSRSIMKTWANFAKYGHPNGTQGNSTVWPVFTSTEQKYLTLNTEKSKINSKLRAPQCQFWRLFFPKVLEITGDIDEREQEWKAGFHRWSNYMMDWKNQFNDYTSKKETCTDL
Chain of Amyloid-beta precursor protein (Homo sapiens) (P05067 whole entry): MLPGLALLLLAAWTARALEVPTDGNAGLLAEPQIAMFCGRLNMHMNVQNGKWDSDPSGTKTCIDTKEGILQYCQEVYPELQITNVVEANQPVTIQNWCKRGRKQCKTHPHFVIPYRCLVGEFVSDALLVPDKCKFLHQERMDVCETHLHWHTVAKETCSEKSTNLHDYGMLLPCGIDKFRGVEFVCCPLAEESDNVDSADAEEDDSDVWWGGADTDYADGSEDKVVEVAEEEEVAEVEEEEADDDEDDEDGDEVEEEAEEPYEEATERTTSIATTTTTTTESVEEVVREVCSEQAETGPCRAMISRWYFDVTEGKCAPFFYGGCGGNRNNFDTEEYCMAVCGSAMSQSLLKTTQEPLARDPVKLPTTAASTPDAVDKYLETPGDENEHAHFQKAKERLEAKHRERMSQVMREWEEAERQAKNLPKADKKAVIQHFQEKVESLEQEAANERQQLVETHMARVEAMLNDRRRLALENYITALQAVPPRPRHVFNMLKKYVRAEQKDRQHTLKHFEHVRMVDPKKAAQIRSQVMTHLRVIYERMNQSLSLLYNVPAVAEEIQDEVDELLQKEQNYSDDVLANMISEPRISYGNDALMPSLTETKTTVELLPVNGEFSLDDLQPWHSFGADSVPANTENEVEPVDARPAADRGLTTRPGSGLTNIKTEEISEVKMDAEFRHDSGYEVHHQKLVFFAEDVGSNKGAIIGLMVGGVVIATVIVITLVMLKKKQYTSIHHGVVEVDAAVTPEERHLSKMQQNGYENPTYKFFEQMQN
Chain of Acetylcholinesterase (Homo sapiens, UniProt P22303) (P22303 whole entry): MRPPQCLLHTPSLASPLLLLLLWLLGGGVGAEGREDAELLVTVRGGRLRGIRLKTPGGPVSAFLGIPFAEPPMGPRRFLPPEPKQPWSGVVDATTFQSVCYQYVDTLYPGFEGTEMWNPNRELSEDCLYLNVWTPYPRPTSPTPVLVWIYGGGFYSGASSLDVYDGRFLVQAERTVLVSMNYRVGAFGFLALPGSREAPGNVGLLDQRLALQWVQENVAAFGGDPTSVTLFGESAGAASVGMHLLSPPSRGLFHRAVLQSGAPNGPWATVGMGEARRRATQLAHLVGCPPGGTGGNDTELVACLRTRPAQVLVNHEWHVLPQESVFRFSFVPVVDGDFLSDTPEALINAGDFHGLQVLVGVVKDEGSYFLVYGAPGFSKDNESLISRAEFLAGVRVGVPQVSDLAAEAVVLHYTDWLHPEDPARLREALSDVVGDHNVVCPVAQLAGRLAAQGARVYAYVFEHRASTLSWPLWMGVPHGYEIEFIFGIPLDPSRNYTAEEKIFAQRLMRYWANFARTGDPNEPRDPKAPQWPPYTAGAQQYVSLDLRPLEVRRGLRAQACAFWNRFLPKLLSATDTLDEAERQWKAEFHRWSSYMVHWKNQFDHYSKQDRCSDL
Chain of Acetylcholinesterase (Electrophorus electricus) (O42275 24-633 limits assumed): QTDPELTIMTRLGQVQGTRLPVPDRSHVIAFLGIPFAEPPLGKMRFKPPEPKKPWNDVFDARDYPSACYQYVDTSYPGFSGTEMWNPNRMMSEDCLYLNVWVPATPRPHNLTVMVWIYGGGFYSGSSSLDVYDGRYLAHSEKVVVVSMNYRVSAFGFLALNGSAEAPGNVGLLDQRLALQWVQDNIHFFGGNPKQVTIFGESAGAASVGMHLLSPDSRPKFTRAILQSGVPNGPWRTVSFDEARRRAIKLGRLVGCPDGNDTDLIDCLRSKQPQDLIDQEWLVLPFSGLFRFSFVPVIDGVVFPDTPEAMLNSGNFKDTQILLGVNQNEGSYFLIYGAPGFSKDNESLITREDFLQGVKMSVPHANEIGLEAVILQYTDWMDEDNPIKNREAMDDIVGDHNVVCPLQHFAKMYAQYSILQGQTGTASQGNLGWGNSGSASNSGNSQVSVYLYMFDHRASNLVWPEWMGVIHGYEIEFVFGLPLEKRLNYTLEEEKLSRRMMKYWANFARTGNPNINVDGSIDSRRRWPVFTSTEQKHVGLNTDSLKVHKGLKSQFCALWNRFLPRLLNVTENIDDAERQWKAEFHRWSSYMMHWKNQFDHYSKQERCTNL

Row | SMILES | inhibition at 0.5 h, 10 µM (MAO-A) [%] | Activity [1] [equiv] | inhibition [2] [%] | IC50 [3] [nM] | inhibition at […], 10 µM [4] [%] | inhibition at 10 µM [5] [%] | inhibition [6] [%] | inhibition at 33 µM (Plasma) [%] | inhibition [7] [%] | IC50 (Acetylcholinesterase [8]) [nM] | IC50 (Acetylcholinesterase [9]) [nM] | Activity [10] [%]
1 | COc1cc2c(cc1OC)/C(=C/c1ccc(N3CCN(C)CC3)c(O)c1)OC2=O | 16.5 | 1.36 | 42.4 | 1550 | < 5 | – | – | – | – | – | – | –
2 | CCN(CC)c1ccc(CC2OC(=O)c3cc(OC)c(OC)cc32)cc1O (stereo unspecified) | < 5 | 2.14 | – | – | < 5 | < 5 | 14.3 | < 5 | 30.1 | 2210 | – | –
3 | COc1cc2c(cc1OC)/C(=C/c1ccc(N3CCCCC3)c(O)c1)OC2=O | 6.1 | 1.46 | – | – | < 5 | < 5 | – | 15.4 | 24.6 | 66 | 50 | –
4 | COc1cc2c(cc1OC)/C(=C\c1ccc(N3CCCC3)c(O)c1)OC2=O | 32 | 2.82 | – | – | 16.5 | 27.8 | – | 9.8 | 30.6 | 660 | – | –
5 | COc1cc2c(cc1OC)C(Cc1ccc(N3CCOCC3)c(O)c1)OC2=O (stereo unspecified) | 8.7 | 2.42 | – | – | < 5 | 34.7 | 9.5 | – | 29.5 | 8260 | – | –
6 | CCN(CC)c1cc(/C=C2/OC(=O)c3cc(OC)c(OC)cc32)ccc1O | < 5 | 2.62 | – | – | 25.1 | 24.9 | – | 53.8 | 33.6 | 0.307 | 1.28 | –
7 | CCN(CC)c1ccc(/C=C2\OC(=O)c3cc(OC)c(OC)cc32)cc1O | < 5 | 2.7 | – | – | < 5 | 39.4 | – | 12.4 | 28.6 | 72 | – | –
8 | COc1cc2c(cc1OC)C(Cc1cccc(O)c1)OC2=O (stereo unspecified) | 7.9 | 0.95 | 14.4 | – | < 5 | 6.2 | – | – | – | – | – | –
9 | CCN(CC)c1ccc(/C=C2/OC(=O)c3cc(OC)c(OC)cc32)cc1O | 48 | 4.48 | – | – | 5.7 | 49 | – | < 5 | 26.1 | 26 | – | –
10 | CCN(CC)c1cc(/C=C2\OC(=O)c3cc(OC)c(OC)cc32)ccc1O | < 5 | 2.14 | – | – | 15.7 | 46.2 | < 5 | 45.1 | 25.9 | 0.383 | 1.55 | 19.9
11 | COc1cc2c(cc1OC)/C(=C\c1ccc(N3CCCCC3)c(O)c1)OC2=O | 49.1 | 1.94 | – | – | 26.2 | 16.1 | – | < 5 | 22.5 | 8.83 | 12 | –
12 | CCN(CC)c1c(O)cccc1CC1OC(=O)c2cc(OC)c(OC)cc21 (stereo unspecified) | < 5 | 2.78 | 16.3 | – | 12.5 | < 5 | – | – | – | – | – | –
13 | COc1cc2c(cc1OC)/C(=C/c1ccc(N3CCCC3)c(O)c1)OC2=O | 5.1 | 4.1 | – | – | 9.4 | 28.3 | – | < 5 | 23 | 31 | – | –
14 | COc1cc2c(cc1OC)/C(=C\c1cccc(O)c1N1CCOCC1)OC2=O | < 5 | 2.06 | 40.8 | – | 11.3 | 10.1 | – | – | – | – | – | –
15 | COc1cc2c(cc1OC)C(Cc1ccc(N3CCCC3)c(O)c1)OC2=O (stereo unspecified) | < 5 | 2.54 | – | – | 19.8 | 14.6 | 18.5 | < 5 | 31.1 | 960 | – | –
16 | COc1cc2c(cc1OC)C(Cc1ccc(N3CCCCC3)c(O)c1)OC2=O (stereo unspecified) | 14.8 | 2.42 | – | – | 10.3 | 8.6 | 12.8 | < 5 | 28.9 | 33 | – | –
17 | COc1cc2c(cc1OC)C(Cc1cccc(O)c1N1CCOCC1)OC2=O (stereo unspecified) | < 5 | 2.28 | 11 | – | < 5 | 19.1 | – | – | – | – | – | –
18 | CC(=O)Oc1ccccc1C(=O)O [ASPIRIN] | – | – | – | – | – | – | – | 12.4 | – | – | – | –
19 | COc1cc2c(cc1OC)C(Cc1cccc(O)c1N1CCCCC1)OC2=O (stereo unspecified) | < 5 | 1.44 | 12.6 | – | < 5 | 15.6 | – | – | – | – | – | –
20 | COc1cc(/C=C/C(=O)CC(=O)/C=C/c2ccc(O)c(OC)c2)ccc1O | – | – | – | – | – | – | 58 | – | – | – | – | 24.3
21 | COc1cc2c(cc1OC)/C(=C/c1cccc(O)c1N1CCCCC1)OC2=O | < 5 | 2.08 | 41.1 | – | 6.7 | 20.3 | – | – | – | – | – | –
